According to patent US20260347347A1, “2-AZA-AND 2-OXABICYCLO[2.1.1]HEXANE DERIVATIVES AS FACTOR XIIA ENZYME INHIBITORS” (KALVISTA PHARMACEUTICALS LIMITED, priority 2022, published 2026):
Like-named read-outs stand apart in the source and are kept apart here.

Assays:
Human Factor XIIa = target: T1, Human Factor XIIa (Homo sapiens, UniProt P00748); experiment: Determination of FXIIa inhibition (in vitro IC50 assay, fluorogenic substrate H-DPro-Phe-Arg-AFC); assay type: biochemical
T1 construct: purchased Enzyme Research Laboratories
T1 sequence (P00748 373-615 limits assumed): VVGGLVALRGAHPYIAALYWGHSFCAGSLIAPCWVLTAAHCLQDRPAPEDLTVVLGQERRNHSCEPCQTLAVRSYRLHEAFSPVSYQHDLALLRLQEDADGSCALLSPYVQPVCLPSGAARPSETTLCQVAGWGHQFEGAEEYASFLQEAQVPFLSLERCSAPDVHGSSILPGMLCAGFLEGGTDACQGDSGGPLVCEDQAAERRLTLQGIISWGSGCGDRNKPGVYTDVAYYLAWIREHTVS
T1 sequence (P00748 20-372 partner limits assumed): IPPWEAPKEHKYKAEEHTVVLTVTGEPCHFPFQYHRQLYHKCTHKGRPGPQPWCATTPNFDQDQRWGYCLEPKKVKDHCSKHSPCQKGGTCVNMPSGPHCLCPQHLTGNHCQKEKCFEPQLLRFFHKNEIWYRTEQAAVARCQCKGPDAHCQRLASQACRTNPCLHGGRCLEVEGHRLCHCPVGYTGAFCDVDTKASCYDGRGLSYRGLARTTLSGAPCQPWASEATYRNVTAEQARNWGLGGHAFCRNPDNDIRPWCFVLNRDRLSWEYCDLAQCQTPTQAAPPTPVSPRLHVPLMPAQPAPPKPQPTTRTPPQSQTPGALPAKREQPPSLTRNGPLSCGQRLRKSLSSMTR
In short: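 Human FXIIa incubated at 25 °C with compound and H-DPro-Phe-Arg-AFC at its Km concentration. Linear fluorescence increase monitored over 5 min, expressed as % of uninhibited activity; IC50 is concentration giving 50% inhibition.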

human PKal = target: T2, human PKal (Homo sapiens, UniProt P03952); experiment: Determination of related protease inhibition: plasma kallikrein; assay type: biochemical
T2 construct: FXIIa converts plasma prekallikrein (PK) to plasma kallikrein (PKa)
Experimental: (§1) In vitro inhibition of related proteases was determined using an IC50 assay based on standard literature methods (see e.g. Shori et al., Biochem. Pharmacol., 1992,43, 1209; Bouckaert et al., European Journal of Medicinal Chemistry 110 (2016) 181). Human serine protease enzyme Plasma Kallikrein, KLK1, FXa, Plasmin, Thrombin and Trypsin were assayed for enzymatic activity using an appropriate fluorogenic substrate at Km concentration, FXIa at fixed substrate concentration of 100 μM and various concentrations of the test compound. Protease activity was measured by monitoring the accumulation of liberated fluorescence from the substrate over 5 min at 25 °C. The linear rate of fluorescence increase per minute was expressed as percentage (%) activity. IC50 values were calculated as the concentration of inhibitor giving 50% inhibition of the uninhibited enzyme activity (100%).

human KLK1 = human KLK1 (Homo sapiens, UniProt P06870); experiment: Determination of related protease inhibition: KLK1; assay type: biochemical
Experimental: as §1

human plasmin = human plasmin (Homo sapiens, UniProt P00747); experiment: Determination of related protease inhibition: plasmin; assay type: biochemical
Experimental: as §1

human FXa = human FXa (Homo sapiens, UniProt P00742); experiment: Determination of related protease inhibition: FXa; assay type: biochemical
Experimental: as §1

human FXIa = human FXIa (Homo sapiens, UniProt P03951); experiment: Determination of related protease inhibition: FXIa; assay type: biochemical
Experimental: as §1

human thrombin = human thrombin (Homo sapiens, UniProt P00734); experiment: Determination of related protease inhibition: thrombin; assay type: biochemical
Experimental: as §1

human trypsin = experiment: Determination of related protease inhibition: trypsin; assay type: biochemical; conditions: fluorogenic substrate at Km concentration, 25 °C
Experimental: as §1

[1] = test system: patients with type I/II hereditary angioedema (HAE); conditions: phase 3, monthly prophylactic subcutaneous treatment; cited from earlier work
[2] = human Factor XIIa, fluorogenic substrate H-DPro-Phe-Arg-AFC at Km concentration, 5 min, 25 °C, class symbols, read-out: Human FXIIa IC50
[3] = fluorogenic substrate at Km concentration, 25 °C, read-out: IC50 (human PKal)
[4] = fluorogenic substrate at Km concentration, 25 °C, read-out: IC50 (human KLK1)
[5] = fluorogenic substrate at Km concentration, 25 °C, read-out: IC50 (human plasmin)
[6] = fluorogenic substrate at Km concentration, 25 °C, read-out: IC50 (human FXa)
[7] = fluorogenic substrate at Km concentration, 25 °C, read-out: IC50 (human thrombin)

T2 sequence (P03952 391-638 limits assumed): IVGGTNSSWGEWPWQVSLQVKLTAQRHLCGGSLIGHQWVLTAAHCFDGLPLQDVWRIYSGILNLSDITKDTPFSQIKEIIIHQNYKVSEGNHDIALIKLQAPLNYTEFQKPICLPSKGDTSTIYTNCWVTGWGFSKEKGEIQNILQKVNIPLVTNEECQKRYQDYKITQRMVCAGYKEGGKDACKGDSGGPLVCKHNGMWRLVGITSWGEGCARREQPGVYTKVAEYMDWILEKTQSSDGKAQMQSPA
T2 sequence (P03952 20-390 partner limits assumed): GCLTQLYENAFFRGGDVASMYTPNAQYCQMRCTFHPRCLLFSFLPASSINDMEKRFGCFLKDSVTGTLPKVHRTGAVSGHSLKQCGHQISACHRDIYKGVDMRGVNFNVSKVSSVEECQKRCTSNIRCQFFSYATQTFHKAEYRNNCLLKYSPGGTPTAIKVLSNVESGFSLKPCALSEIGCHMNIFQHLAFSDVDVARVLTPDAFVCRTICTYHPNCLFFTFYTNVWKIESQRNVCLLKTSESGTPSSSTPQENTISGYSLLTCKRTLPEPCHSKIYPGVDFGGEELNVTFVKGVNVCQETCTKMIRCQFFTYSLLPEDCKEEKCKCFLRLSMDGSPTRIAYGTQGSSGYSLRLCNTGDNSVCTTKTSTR
Sequence of human FXa (P00742 235-488 limits assumed): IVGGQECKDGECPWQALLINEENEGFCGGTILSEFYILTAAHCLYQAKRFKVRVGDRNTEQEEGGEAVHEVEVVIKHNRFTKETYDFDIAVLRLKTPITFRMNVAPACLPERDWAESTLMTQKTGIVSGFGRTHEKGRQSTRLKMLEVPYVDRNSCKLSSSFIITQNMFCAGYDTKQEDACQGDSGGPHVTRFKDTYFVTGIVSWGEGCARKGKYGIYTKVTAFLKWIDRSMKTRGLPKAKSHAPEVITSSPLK
Sequence of human FXa (P00742 41-179 partner limits assumed): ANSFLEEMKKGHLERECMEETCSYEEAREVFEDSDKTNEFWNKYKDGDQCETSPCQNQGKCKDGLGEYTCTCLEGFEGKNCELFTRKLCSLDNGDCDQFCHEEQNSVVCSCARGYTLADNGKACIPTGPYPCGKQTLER
Sequence of human KLK1 (P06870 25-262): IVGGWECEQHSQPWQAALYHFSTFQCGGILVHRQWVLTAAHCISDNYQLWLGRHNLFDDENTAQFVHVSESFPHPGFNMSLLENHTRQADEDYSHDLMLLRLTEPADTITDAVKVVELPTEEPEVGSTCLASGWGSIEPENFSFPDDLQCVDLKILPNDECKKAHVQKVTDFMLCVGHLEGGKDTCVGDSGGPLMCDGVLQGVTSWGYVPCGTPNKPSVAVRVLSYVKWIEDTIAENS
Sequence of human plasmin (P00747 581-810 limits assumed): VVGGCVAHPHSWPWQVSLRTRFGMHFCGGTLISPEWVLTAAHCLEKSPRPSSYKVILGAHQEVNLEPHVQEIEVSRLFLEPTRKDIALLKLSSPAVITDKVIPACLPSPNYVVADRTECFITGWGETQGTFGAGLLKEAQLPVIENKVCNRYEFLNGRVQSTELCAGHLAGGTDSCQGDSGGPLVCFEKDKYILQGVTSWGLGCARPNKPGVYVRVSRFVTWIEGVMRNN
Sequence of human plasmin (P00747 97-580 partner limits assumed): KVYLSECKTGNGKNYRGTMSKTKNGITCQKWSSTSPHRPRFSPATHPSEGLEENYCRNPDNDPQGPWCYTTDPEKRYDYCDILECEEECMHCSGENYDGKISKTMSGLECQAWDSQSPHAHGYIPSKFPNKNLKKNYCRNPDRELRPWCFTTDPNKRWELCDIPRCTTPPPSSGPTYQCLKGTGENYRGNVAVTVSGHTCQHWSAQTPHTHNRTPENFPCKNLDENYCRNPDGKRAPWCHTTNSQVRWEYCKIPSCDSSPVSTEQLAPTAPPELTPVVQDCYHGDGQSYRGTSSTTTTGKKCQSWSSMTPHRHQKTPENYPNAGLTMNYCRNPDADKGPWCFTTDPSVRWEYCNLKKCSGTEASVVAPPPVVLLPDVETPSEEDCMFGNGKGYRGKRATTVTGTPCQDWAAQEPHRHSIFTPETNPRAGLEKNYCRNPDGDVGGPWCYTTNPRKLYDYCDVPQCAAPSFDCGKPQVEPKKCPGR
Sequence of human FXIa (P03951 388-625 limits assumed): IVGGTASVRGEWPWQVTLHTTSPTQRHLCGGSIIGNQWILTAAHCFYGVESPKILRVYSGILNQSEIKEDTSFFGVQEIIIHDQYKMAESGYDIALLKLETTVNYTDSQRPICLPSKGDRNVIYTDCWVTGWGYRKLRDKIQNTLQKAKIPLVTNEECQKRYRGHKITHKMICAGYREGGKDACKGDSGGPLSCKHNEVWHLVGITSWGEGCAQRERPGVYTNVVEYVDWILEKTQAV
Sequence of human FXIa (P03951 19-387 partner limits assumed): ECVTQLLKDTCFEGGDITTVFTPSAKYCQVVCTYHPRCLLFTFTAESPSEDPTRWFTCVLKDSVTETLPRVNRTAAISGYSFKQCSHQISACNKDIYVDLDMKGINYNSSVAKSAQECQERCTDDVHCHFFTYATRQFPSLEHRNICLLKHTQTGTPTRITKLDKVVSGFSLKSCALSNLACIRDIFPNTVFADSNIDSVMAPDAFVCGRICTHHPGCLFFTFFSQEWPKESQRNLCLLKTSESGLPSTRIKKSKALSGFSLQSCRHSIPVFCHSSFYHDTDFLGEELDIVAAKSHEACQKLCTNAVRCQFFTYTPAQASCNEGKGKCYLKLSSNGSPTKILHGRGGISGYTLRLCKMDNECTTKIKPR

Molecule | IC50 (Human Factor XIIa; [2]) [µM] | IC50 (human PKal; [3]) [µM] | IC50 (human KLK1; [4]) [µM] | IC50 (human plasmin; [5]) [µM] | IC50 (human FXa; [6]) [µM] | IC50 (human thrombin; [7]) [µM] | other results
Cn1ccc(OCC23CN(C(=O)NC4(c5ccccc5)CC4)C(CNc4cccc5c(N)nccc45)(C2)C3)cc1=O [Example 30, 1-(((1-Aminoisoquinolin-5-yl)amino)methyl)-4-(((1-methyl-2-oxo-1,2-dihydropyridin-4-yl)oxy)methyl)-N-(1-phenylcyclopropyl)-2-azabicyclo[2.1.1]hexane-2-carboxamide] | – | – | – | – | – | – | IC50 (Human Factor XIIa): 0.001 to 0.01 µM; IC50 (human PKal): 10 to 40 µM; IC50 (human KLK1): 1 to 3 µM; IC50 (human plasmin): 10 to 40 µM; IC50 (human FXa): 10 to 40 µM; IC50 (human FXIa): 3 to 10 µM; IC50 (human thrombin): > 40 µM
Cc1cc(OCC23CN(C(=O)C4CC5(CCOCC5)C4)C(CNc4cccc5c(N)nccc45)(C2)C3)cc(=O)n1C [Example 20, 4-((1-(((1-aminoisoquinolin-5-yl)amino)methyl)-2-(7-oxaspiro[3.5]nonane-2-carbonyl)-2-azabicyclo[2.1.1]hexan-4-yl)methoxy)-1,6-dimethylpyridin-2(1H)-one] | 0.01 to 0.1 | > 40 | 10 to 40 | 10 to 40 | 10 to 40 | > 40 | IC50 (human FXIa; fixed substrate concentration of 100 μM, 25 °C, read-out: IC50 (human FXla)): 10 to 40 µM
Cn1ccc(OCC23CN(C(=O)CC4CCCCC4)C(CNc4cccc5c(N)nccc45)(C2)C3)cc1=O [Example 5, 4-((1-(((1-aminoisoquinolin-5-yl)amino)methyl)-2-(2-cyclohexylacetyl)-2-azabicyclo[2.1.1]hexan-4-yl)methoxy)-1-methylpyridin-2(1H)-one] | 0.01 to 0.1 | > 40 | 1 to 3 | 3 to 10 | 10 to 40 | 10 to 40 | IC50 (human trypsin): 10 to 40 µM
Garadacimab: Garadacimab (CSL-312), a monoclonal antibody inhibitory against FXIIa | – | – | – | – | – | – | attacks in patients with type I/II hereditary angioedema [1]: reduce attacks
Cn1ccc(OCC23CN(C(=O)NC4C5CC6CC(C5)CC4C6)C(CNc4cccc5c(N)nccc45)(C2)C3)cc1=O (stereo not drawn) [Example 61, N-(adamantan-2-yl)-1-(((1-aminoisoquinolin-5-yl)amino)methyl)-4-(((1-methyl-2-oxo-1,2-dihydropyridin-4-yl)oxy)methyl)-2-azabicyclo[2.1.1]hexane-2-carboxamide] | 0.01 to 0.1 | – | – | – | – | – | –
Cn1ccc(OCC23CN(C(=O)Nc4ccc5c(c4)CCO5)C(CNc4cccc5c(N)nccc45)(C2)C3)cc1=O [Example 38, 1-(((1-aminoisoquinolin-5-yl)amino)methyl)-N-(2,3-dihydrobenzofuran-5-yl)-4-(((1-methyl-2-oxo-1,2-dihydropyridin-4-yl)oxy)methyl)-2-azabicyclo[2.1.1]hexane-2-carboxamide] | 0.001 to 0.01 | – | – | – | – | – | –
